Our source for the melting point values is the Bradley open melting point set (2014).

What is called melting point is the temperature of the solid-liquid transition.

Where “and” joins values, the source holds several entries; their conditions need not be identical. Equal values may be shown once. Where a name gives a salt, the structure may show the parent alone.

As for `CCOC(=O)c1cc(-c2ccco2)n[nH]1` [ethyl 3-(2-furyl)-1h-pyrazole-5-carboxylate], the melting point came to 136 °C. Then `COC(=O)c1cc(OC)c(OC)c(OC)c1` [methyl 3,4,5-trimethoxybenzoate], with 85 °C; and `Nc1ccc([N+](=O)[O-])cc1[N+](=O)[O-]` [2,4-dinitroaniline], with 177 °C.

As to `COC(=O)CCC(C)C1CCC2C3C(O)C(O)C4CCCCC4(C)C3CCC12C` (centres undefined) [methyl 6,7-dihydroxycholan-24-oate], the melting point turned out to be 105 °C. Then `N#CCc1ccc(N)cc1` [4-aminophenylacetonitrile], with 44 °C; and `CC(=O)Nc1ccc(O)cc1` [acetaminophen], with 169 °C; and `Oc1ccc(Cl)c(Cl)c1` [3,4-Dichlorophenol], with 67 °C. The result for `C1=CCCC=CCC1` [1,5-cyclooctadiene] reads -69 °C; that for `CCCC(=O)OCC` [ethyl_butyrate], -93 °C; that for `O[C@@H]1CO[C@H]2[C@@H]1OC[C@@H]2O` [D-isosorbide], 60 °C. As for `CCCCc1ccccc1` [butylbenzene], the melting point is -88 °C.

Regarding `O=[N+]([O-])c1cc(Cl)ccc1Cl` [2,5-dichloronitrobenzene], the melting point came to 56 °C. Consider `OB(O)c1ccccc1Cl` [2-chlorobenzeneboronic acid], for which the melting point was determined as 98 °C. `Oc1ccccc1C(F)(F)F` [2-(trifluoromethyl)phenol] had a melting point of 46 °C. With `CC(=O)N[C@@H](CCC(=O)O)C(=O)O` [N-acetyl-l-glutamic acid], the melting point is 197 °C. On to `COC=O` [methyl formate], for which the melting point was -100 °C. Turning to `O=C(NC(Cc1ccccc1)C(=O)O)OCc1ccccc1[N+](=O)[O-]` (centres undefined) [N-{[(2-nitrobenzyl)oxy]carbonyl}phenylalanine], the melting point was determined as 141 °C. The result for `ClC(Cl)C(Cl)Cl` [1,1,2,2-tetrachloroethane] reads -43 °C; that for `Cc1ccc(C(=O)c2ccccc2)cc1` [4-methylbenzophenone], 55 °C; that for `BrC=Cc1ccccc1` [beta-bromostyrene, cis trans], -8 °C.

As for `CCCCCCCCCCCCCCCC(=O)O` [Palmitic acid], the melting point was determined as 62.5 °C. Then `CCCOC1CCC2(C)C(CC(=O)C3C2CCC2(C)C(OCCC)CCC32)C1` (centres undefined) [3,17-dipropoxyandrostan-7-one], with 163 °C; and `ClCc1ccc(Cl)cc1` [4-chlorobenzyl_chloride], with 30 °C; and `O=S(=O)(O)c1ccccc1` [Benzenesulfonic acid], with 43.5 °C. In turn, `O=C(N[C@H](CO)C(=O)O)OCc1ccccc1` [N-benzyloxycarbonyl-D-serine] gave a melting point of 118 °C. In the case of `N[C@@H](CO)C(=O)O` [L-Serine], the melting point amounted to 222 °C. `CSc1cccc(B(O)O)c1` [3-(methylthio)benzeneboronic acid]: the melting point came to 160 °C. Then `Cc1ccc(N2C(=O)C=CC2=O)cc1Cl` [N-(3-chloro-4-methylphenyl)maleimide], with 146 °C. As for `CCOC(=O)C(C#N)=Cc1ccc(Cl)cc1` [Ethyl 3-(4-chlorophenyl)-2-cyanoacrylate], the melting point stood at 138 °C. Then `Clc1cc(Cl)nc(Cl)n1` [2,4,6-trichloropyrimidine], with 23 °C.

`O=C(/C=C/c1ccc(Br)o1)c1ccco1` [(2E)-3-(5-bromofuran-2-yl)-1-furan-2-ylprop-2-en-1-one]: the melting point came to 77 °C. The result for `Nc1ccc(S(=O)(=O)c2ccc(N)cc2)cc1` [dapsone] reads 176 °C; that for `C/C=C/C(=O)N(CCCCCCC)C(C(=O)NC(C)(C)C)c1cc2ccccc2c2ccccc12` (centres undefined) [Ugi product 148B], 180 °C. Turning to `O=Cc1ccc(CO)cc1` [p-hydroxymethyl_benzaldehyde], the melting point amounted to 47 °C.

With `O=C1OC(=O)C23Cc4ccccc4CC12Cc1ccccc1C3` (centres undefined), the melting point was determined as 269 °C.

`O=c1cc(-c2ccccc2)oc2cccc(O)c12` [5-hydroxyflavone] displayed a melting point of 158 °C. Then `COC(=O)c1cccc(Br)c1` [methyl_3-bromobenzoate], with 33 °C. Then `O=C(c1ccccc1)c1cc(Br)ccc1O` [5-bromo-2-hydroxybenzophenone], with 110 °C.

In turn, `CCCCCCN` [1-hexylamine] gave a melting point of -19 °C. On to `CN=C=S` [Isothiocyanatomethane], for which the melting point was 35 °C.

Compound `CC(=O)Nc1ccccc1` [acetanilide] returned a melting point of 115 °C. `O=C1c2ccccc2-c2ccccc21` [9-fluorenone] returned a melting point of 83 °C. The compound `CCOC(=O)/C=C/C(=O)OCC` [diethyl_fumarate] had a melting point of 2 °C. Then `O=Cc1cccc2ccccc12` [1-naphthaldehyde], with 2 °C; and `Clc1cc(Cl)c(Cl)c(Cl)c1Cl` [Pentachlorobenzene], with 85 °C; and `CC(C)(C)c1cc(CC(=O)O)cc(C(C)(C)C)c1O` [3,5-di-tert-butyl-4-hydroxyphenylacetic acid], with 156 °C. In turn, `Nc1ccc(Br)cc1` [4-bromoaniline] came in with a melting point of 63 °C. The result for `O=C(O)c1cccc(OCc2ccccc2)c1` [3-benzyloxybenzoic acid] reads 134 °C; that for `Cn1cc[nH]c1=S` [methimazole], 146 °C (4×) and 147 °C; that for `CCCCCC(=O)O` [hexanoic acid], -1.9 °C. The result for `CCCCCO` [1-pentanol] reads -78 °C. The compound `COc1cc(/C=C/C(=O)CC(=O)/C=C/c2ccc(O)c(OC)c2)ccc1O` displayed a melting point of 180 °C. Turning to `CC12C=CC(O1)C1C(=O)OC(=O)C12` (centres undefined), the melting point turned out to be 70 °C. In turn, `COc1ccc(B(O)O)c(C)c1` [4-methoxy-2-methylbenzeneboronic acid] came in with a melting point of 191 °C.

`CCOC(=O)Nc1ccc(C)cc1[N+](=O)[O-]` [Ethyl (4-methyl-2-nitrophenyl)carbamate] displayed a melting point of 65 °C. The result for `Brc1ccc(Br)cc1` [1,4-dibromobenzene] reads 88 °C; that for `Oc1ccc2c(c1)CCCC2` [5,6,7,8-tetrahydro-2-naphthol], 62 °C; that for `N#CCc1ccc(CC#N)cc1` [p-Xylylene dicyanide], 96 °C. The result for `O=C(/C=C/c1ccc(-c2ccc(Br)cc2)o1)c1ccccc1` [(2E)-3-[5-(4-Bromophenyl)-2-furyl]-1-phenylprop-2-en-1-one] reads 129 °C; that for `CC1(C)C(=O)OC2=C(CCC/C2=C\c2ccccc2)C1c1ccccc1` (centres undefined), 156 °C; that for `CCNc1ccccc1` [N-ethylaniline], -64 °C.

Compound `C[C@H](Cc1ccc(O)c(O)c1)[C@@H](C)Cc1ccc(O)c(O)c1` displayed a melting point of 180 °C. `CC(C)c1ccc(/C=C/[N+](=O)[O-])cc1` [4-isopropyl-beta-nitrostyrene] came in with a melting point of 37 °C. Then `CC(C)c1ccc(O)cc1` [4-isopropylphenol], with 60 °C; and `Nc1ccc(-c2ccc(N)cc2)cc1` [Biphenyl-4,4'-diamine], with 128 °C. The result for `CC(CC(=O)O)CC(C)(C)C` (centres undefined) [3,5,5-trimethylhexanoic acid] reads -70 °C. As to `CC(N)CCc1ccccc1` (centres undefined) [3-amino-1-phenylbutane], the melting point is -50 °C. The result for `COC(=O)N/C=C/c1ccccc1[N+](=O)[O-]` [methyl [(E)-2-(2-nitrophenyl)ethenyl]carbamate] reads 147 °C. In turn, `CCOc1ccc(N)cc1` [4-Ethoxyaniline] showed a melting point of 3 °C. Then `C[SiH]1O[SiH](C)O[SiH](C)O[SiH](C)O1` (centres undefined) [2,4,6,8-tetramethylcyclotetrasiloxane], with -69 °C; and `c1ccc(-c2cccc(-c3ccccn3)n2)nc1` [2,2':6',2''-terpyridine], with 91 °C. As for `CC(=O)Oc1ccccc1C(=O)O` [Acetylsalicylic acid], the melting point was 135 °C.

For `Cc1ccc(N)c(Cl)c1` [2-chloro-4-methylaniline], the melting point was determined as 7 °C. `Cc1ccc([N+](=O)[O-])cc1` [4-nitrotoluene] displayed a melting point of 52 °C. The result for `C[C@]12CC[C@@H]3c4ccc(O)cc4CC[C@H]3[C@@H]1C[C@@H](O)[C@@H]2O` [estriol] reads 282 °C; that for `c1ccc(N(c2ccccc2)c2ccccc2)cc1` [triphenylamine], 127 °C. As to `CNc1ccc([N+](=O)[O-])cc1` [N-methyl-4-nitroaniline], the melting point is 153 °C. The compound `Cc1cccc(C(=O)NCC(=O)O)c1` [3-methylhippuric acid] yielded a melting point of 139 °C. The result for `Cc1ccc(S(=O)(=O)NC(=O)NN2CCCCCC2)cc1` [Tolazamide] reads 172 °C; that for `Nc1ccccc1C(=O)O` [anthranilic acid], 147 °C.

`CC(=O)Nc1ccc2c(c1)NC(=O)C2` [N-(2-oxo-2,3-dihydro-1H-indol-6-yl)acetamide]: the melting point came to 335 °C.

On to `COc1ccccc1-c1nnn[nH]1` [5-(2-methoxyphenyl)-1h-tetrazole], for which the melting point is 155 °C. The compound `CC(=O)Nc1ccccc1` [N-Phenylacetamide] gave a melting point of 115 °C. `CCCCCc1ccc(-c2ccc(C#N)cc2)cc1` [4-cyano-4'-n-pentylbiphenyl]: the melting point came to 23 °C. Then `O=C1CCCCCN1` [epsilon-caprolactam], with 70 °C; and `Clc1cc(Cl)c(Cl)c(Cl)c1` [1,2,3,5-tetrachlorobenzene], with 53 °C and 55 °C and 51.5 °C.

Compound `O=C(CCc1ccccc1)/C(=N/O)c1ccccc1` [(1E)-1,4-diphenylbutane-1,2-dione 1-oxime] came in with a melting point of 130 °C. As to `CCCOC1CCC2C3CCC4=CC(O)CCC4(C)C3CCC12C` (centres undefined) [17-propoxyandrost-4-en-3-ol], the melting point was found to be 125 °C. On to `CCCCCOC(=O)c1ccc(O)cc1` [N-pentyl 4-hydroxybenzoate], for which the melting point came to 38 °C.
